Laboratory results: ChEMBL document CHEMBL4152373 (Bioorg Med Chem, 2018)

Assays:
Rattus norvegicus [1] = test: Unbound clearance in Sprague-Dawley rat at 1 mg/kg, iv administered as single dose by LC-MS/MS analysis; type: ADME, organism-based; conditions: in vivo
[2] = Fraction unbound in mouse plasma at 5 uM after 4 hrs by equilibrium dialysis method
Mus musculus [3] = test: Dose normalized unbound AUC in C57Bl/6J mouse at 50 mg/kg, po administered via gavage as single dose by LC-MS/MS analysis; type: ADME, organism-based; conditions: in vivo
[4] = Fraction unbound in rat plasma at 5 uM after 4 hrs by equilibrium dialysis method
[5] = Oral bioavailability in Sprague-Dawley rat at 3 mg/kg administered via gavage as single dose by LC-MS/MS analysis; type: ADME, organism-based; conditions: in vivo
[6] = Half life in Sprague-Dawley rat at 1 mg/kg, iv administered as single dose by LC-MS/MS analysis; type: ADME, organism-based; conditions: in vivo
Mus musculus [7] = test: Antidiabetic activity in C57Bl/6J mouse assessed as inhibition of blood glucose AUC (0 to 120 mins) at 50 mg/kg, po treated prior to glucose challenge by OGTT relative to control; type: functional
Rattus norvegicus [8] = test: Dose normalized unbound AUC in Sprague-Dawley rat at 3 mg/kg, po administered via gavage as single dose by LC-MS/MS analysis; type: ADME, organism-based; conditions: in vivo
[9] = Octanol-PBS buffer partition coefficient, log D of the compound at pH 7.4 by HPLC method
[10] = Octanol-PBS buffer partition coefficient, log D of the compound at pH 7.4 by shake flask method
Mus musculus [11] = test: Dose normalized unbound AUC in C57Bl/6J mouse at 3 mg/kg, po administered via gavage as single dose by LC-MS/MS analysis; type: ADME, organism-based; conditions: in vivo
Mus musculus [12] = test: Antidiabetic activity in C57Bl/6J mouse assessed as inhibition of blood glucose AUC (0 to 120 mins) at […], po treated prior to glucose challenge by OGTT relative to control; type: functional; conditions: AT84, po

Structure (SMILES) | CL free (Rattus norvegicus [1]) | fraction unbound at 4 h, 5 µM [2] | fAUC/dose (Mus musculus [3]) | fraction unbound at 4 h, 5 µM [4] | bioavailability [5] | half-life [6] | fAUC/dose (Rattus norvegicus [8]) | logD [9] | logD [10] | fAUC/dose (Mus musculus [11]) | inhibition in vivo at 50 mg/kg (Mus musculus [7]) | inhibition in vivo at […] (Mus musculus [12])
COc1ccc(-c2ccc(Cl)cc2-c2csc(N(C(=O)[C@@H](CC(=O)O)Cc3ccco3)C3CC3)n2)cn1 | 2738 mL/min/kg | 0.0041 | 1.2 µM·min | 0.0026 | 38% | 9.65 h | 0.26 µM·min | 2.5 | – | – | 32% | –
CN(C(=O)[C@@H](CC(=O)O)CC1CCOCC1)c1nc(-c2ccccc2Cl)cs1 | – | – | – | – | – | – | – | 1.27 to 1.3 | 1.27 | – | – | –
CC(C)C[C@H](CC(=O)O)C(=O)N(c1nc(-c2ccccc2-c2ccc(-n3cccn3)nc2)cs1)C1CC1 | 1091 mL/min/kg | 0.0075 | 3.3 µM·min | 0.0057 | 29% | 4.67 h | 0.55 µM·min | 2.4 | – | – | 26% | –
O=C(O)C[C@@H](CC1CCCC1)C(=O)N(c1nc(-c2ccccc2-c2ccc(-n3cccn3)nc2)cs1)C1CC1 | 6692 mL/min/kg | 0.0014 | 0.53 µM·min | 0.0013 | 25% | 2.58 h | 0.07 µM·min | 3.1 | – | – | 40% | –
COc1ccc(-c2ccccc2-c2csc(N(C(=O)[C@@H](CC(=O)O)CC(C)C)C3CC3)n2)cn1 | 342 mL/min/kg | 0.0107 | 4.7 µM·min | 0.0066 | 35% | 7.18 h | 2.1 µM·min | 2.2 | – | – | 19% | –
CN(C(=O)[C@@H](CC(=O)O)CC1CCCC1)c1nc(-c2ccccc2Cl)cs1 | – | – | – | – | – | – | – | 2.74 to 2.9 | 2.87 | – | – | –
CC(C)[C@H](C(=O)Nc1nccs1)c1ccc(Cl)cc1 | 6666 mL/min/kg | 0.0052 | – | 0.0062 | 15% | 3.67 h | 0.08 µM·min | 3.9 to 4.08 | 3.94 | 0.045 µM·min | – | 7%

Now from value to compound, other results behind:

CL free (Rattus norvegicus [1]) | fraction unbound at 4 h, 5 µM [2] | fAUC/dose (Mus musculus [3]) | fraction unbound at 4 h, 5 µM [4] | bioavailability [5] | half-life [6] | fAUC/dose (Rattus norvegicus [8]) | logD [9] | logD [10] | fAUC/dose (Mus musculus [11]) | Structure (SMILES) | inhibition in vivo at 50 mg/kg (Mus musculus [7]) | inhibition in vivo at […] (Mus musculus [12])
– | – | – | – | – | – | – | 2.3 | – | – | CN(C(=O)[C@H](CC(=O)O)Cc1ccccc1)c1nc(-c2ccccc2Cl)cs1 | – | –
1044 mL/min/kg | 0.0025 | 4.7 µM·min | 0.0016 | 52% | 5.32 h | 0.7 µM·min | 2.3 | – | – | O=C(O)C[C@@H](Cc1ccccc1)C(=O)N(c1nc(-c2ccccc2Cl)cs1)C1CC1 | 1% | –
2800 mL/min/kg | 0.0001 | 0.32 µM·min | 0.0001 | 47% | 9.83 h | 0.26 µM·min | 3 | – | – | O=C(O)C[C@@H](Cc1ccccc1)C(=O)N(c1nc(-c2cc(Cl)ccc2Cl)cs1)C1CC1 | 5% | –
738 mL/min/kg | 0.0015 | 2 µM·min | 0.0008 | 77% | 8.03 h | 2.4 µM·min | 2.13 to 2.3 | 2.31 | – | CN(C(=O)[C@@H](CC(=O)O)Cc1ccccc1)c1nc(-c2ccccc2Cl)cs1 | -8% | –
